Experiment [1] deals with cynomolgus monkey. Description: Drug efficacy test in cynomolgus monkeys (plasma HDL cholesterol). It counts as in vivo. The settings on record: Macaca fascicularis, oral, single dose of 10 mg/kg, from AUC before administration and 24 hours after administration, read-out: Rate of increase in HDL level after administration of single dose. The method, then: Each test drug was dissolved in a propylene glycol (Sigma-Aldrich Corp.)-Tween 80 (Sigma-Aldrich Corp.) mixed solution [4/1 (v/v)] or a 0.5% (w/v) methylcellulose aqueous solution, and the solution was orally administered to a cynomolgus monkey for 1 or 7 days. At day 1 or 7 of the administration period, blood was collected before administration and after administration, and plasma was obtained. The content of cholesterol in the plasma was measured using a commercially available assay kit (Cholesterol-E Wako, Wako Pure Chemical Industries, Ltd.). The lipoprotein profile was analyzed by HPLC (column: LipopropakXL, manufactured by Tosoh Corp.). The contents of HDL cholesterol and non-HDL cholesterol were calculated according to the following calculation expression: Content of HDL cholesterol=Content of cholesterol in the plasma×(Peak area of HDL cholesterol/Total sum of peaks) Content of non-HDL cholesterol=Content of cholesterol in the plasma×(Peak area of non-HDL cholesterol/Total sum of peaks)

Experiment [2] addresses T1, LCAT (Homo sapiens, UniProt P04180).
T1 construct: The obtained fraction was dialyzed against phosphate-buffered saline (pH 7.4) and used as an enzyme source and an acceptor for LCAT; from tissue; host or cells: HDL3 fraction (1.125 < specific gravity < 1.210 g/mL) of plasma from a healthy person
T1 sequence (P04180 25-440): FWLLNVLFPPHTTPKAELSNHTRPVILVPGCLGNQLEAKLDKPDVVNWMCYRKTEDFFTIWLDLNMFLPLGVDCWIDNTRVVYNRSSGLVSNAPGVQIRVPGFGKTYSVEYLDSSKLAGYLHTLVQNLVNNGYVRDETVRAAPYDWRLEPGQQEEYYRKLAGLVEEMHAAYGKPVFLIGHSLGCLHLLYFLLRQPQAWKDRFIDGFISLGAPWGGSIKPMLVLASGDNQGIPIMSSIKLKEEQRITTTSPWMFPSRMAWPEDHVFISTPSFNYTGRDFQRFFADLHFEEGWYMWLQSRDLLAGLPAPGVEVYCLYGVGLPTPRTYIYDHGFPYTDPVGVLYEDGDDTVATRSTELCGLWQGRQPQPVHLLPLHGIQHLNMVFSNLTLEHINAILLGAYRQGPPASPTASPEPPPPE
The experiment in a line: LCAT activity measurement (in vitro), [14C]cholesterol esterification with HDL3 fraction. It counts as biochemical. The settings on record: HDL3 fraction from plasma of a healthy person as enzyme source and acceptor; 37° C., approximately 16 hours; relative to sample without test drug; read-out: EC50 of LCAT activation. The method, then:
A fraction composed of HDL3 (1.125 <specific gravity <1.210 g/mL) was obtained from the plasma of a healthy person by density gradient centrifugation. The obtained fraction was dialyzed against phosphate-buffered saline (pH 7.4) and used as an enzyme source and an acceptor for LCAT. Each test drug was prepared by dissolution in dimethyl sulfoxide. [^14C]Cholesterol containing DTNB (Ellman's reagent, final concentration: 0.5 mM), mercaptoethanol (final concentration: 12.5 mM), and 0.6% bovine serum albumin was added to phosphate-buffered saline (pH 7.4) containing 1 mg/mL HDL3, and the test drug was further added thereto at varying concentrations to adjust the whole amount to 80 μL. This mixture was incubated at 37° C. for approximately 16 hours. Then, a mixed solution of hexane and isopropanol (mixing ratio=3:2) was added thereto to stop the reaction. After stirring, the hexane layer was collected, and this layer was evaporated to dryness. A chloroform solution (concentration: 10 mg/mL) was added thereto, and the mixture was spotted onto a thin-layer silica gel plate and developed using a mixed solution of hexane, diethyl ether, and ethyl acetate (mixing ratio=85:15:2). The radioactivity of a portion corresponding to cholesterol oleate was measured using an imaging analyzer BAS-2500 (manufactured by Fujifilm Corp.). A sample non-supplemented with the test drug was similarly treated and assayed. The EC50 value of LCAT activation was calculated according to the expression given below relative to LCAT activity in the sample non-supplemented with the test drug.
[formula] • wherein X represents the logarithm of the concentration of the test drug; • Y represents the responsiveness (LCAT activity) of the test drug; • Top represents the maximum value (maximum plateau); • Bottom represents the minimum value (minimum plateau); and • EC50 represents the 50% effective concentration.

Among the data in US9796709B2, “5-hydroxy-4-(trifluoromethyl)pyrazolopyridine derivative” (Daiichi Sankyo Company, Limited, priority 2013, dated 2017) are change in vivo and EC50 values, retold here.

Structures are written as SMILES.

What is called EC50 is the midpoint of the concentration-response curve. As for `O=C1Nc2[nH]nc(C3CCN(c4cnc(C(F)(F)F)cn4)CC3)c2[C@@H](C(F)(F)F)[C@H]1O` (single isomer, unassigned) [Example 18, (+)-cis-5-Hydroxy-4-(trifluoromethyl)-3-{1-[5-(trifluoromethyl)pyrazin-2-yl]piperidin-4-yl}-1,4,5,7-tetrahydro-6H-pyrazolo[3,4-b]pyridin-6-one], the change in vivo at 10 mg/kg in experiment [1] turned out to be 644%. Also, the EC50 in experiment [2] amounted to 9 nM.
The like results for `O=C1Nc2[nH]nc(C3CCN(c4cnc(C(F)(F)F)cn4)CC3)c2C(O)(C(F)(F)F)C1O` (single isomer, unassigned; (+)) [Example 34, (+)-4,5-Dihydroxy-4-(trifluoromethyl)-3-{1-[5-(trifluoromethyl)pyrazin-2-yl]piperidin-4-yl}-1,4,5,7-tetrahydro-6H-pyrazolo[3,4-b]pyridin-6-one] were, in that order, 590% and 4 nM.
For `O=C1Nc2[nH]nc(C3CCN(c4ccc(C(F)(F)F)cn4)CC3)c2[C@@H](C(F)(F)F)[C@H]1O` (single isomer, unassigned) [Example 3, (+)-cis-5-Hydroxy-4-(trifluoromethyl)-3-{1-[5-(trifluoromethyl)pyridin-2-yl]piperidin-4-yl}-1,4,5,7-tetrahydro-6H-pyrazolo[3,4-b]pyridin-6-one], the change in vivo at 10 mg/kg in experiment [1] stood at 658%. For the same compound, the EC50 in experiment [2] was found to be 13 nM.
For `O=C1Nc2[nH]nc(C3CCN(c4cc(C(F)(F)F)ncn4)CC3)c2[C@@H](C(F)(F)F)[C@H]1O` (single isomer, unassigned) [Example 30, (+)-cis-5-Hydroxy-4-(trifluoromethyl)-3-{1-[6-(trifluoromethyl)pyrimidin-4-yl]piperidin-4-yl}-1,4,5,7-tetrahydro-6H-pyrazolo[3,4-b]pyridin-6-one], in that order: 290% and 63 nM.
